Among the data in ChEMBL document CHEMBL2311340, “Chemical constituents from the fruit of Gardenia jasminoides and their inhibitory effects on nitric oxide production” (Bioorg Med Chem Lett, 2013) are IC50 values, retold here.

The experiment deals with RAW264.7. In words: Inhibition of nitric oxide production in lipopolysaccharide-activated mouse RAW264.7 cells by Griess reaction based method. The format is functional, cell-based.
With `COC(=O)C1=CO[C@@H](O[C@@H]2O[C@H](CO[C@H]3O[C@H](CO)[C@@H](O)[C@H](O)[C@H]3O)[C@@H](O)[C@H](O)[C@H]2O)[C@@H]2C(CO)=CC[C@H]12`, the half-inhibitory concentration (IC50) was above 100 µM.

Molecule `CC(/C=C/C=C(\C)C(=O)O[C@@H]1O[C@H](CO)[C@@H](O)[C@H](O)[C@H]1O)=C\C=C\C=C(C)\C=C\C=C(/C)C(=O)O[C@@H]1O[C@H](CO[C@@H]2O[C@H](CO)[C@@H](O)[C@H](O)[C@H]2O)[C@@H](O)[C@H](O)[C@H]1O` registered an IC50 above 100 µM.

In turn, `COC(=O)C1=CO[C@@H](O[C@@H]2O[C@H](CO[C@@H]3O[C@H](COC(=O)/C=C/c4ccc(O)c(O)c4)[C@@H](O)[C@H](O)[C@H]3O)[C@@H](O)[C@H](O)[C@H]2O)[C@@H]2C(CO)=CC[C@H]12` registered an IC50 above 100 µM.

Consider `COC(=O)C1=CO[C@@H](O[C@@H]2O[C@H](CO[C@@H]3OC[C@](O)(CO)[C@H]3O)[C@@H](O)[C@H](O)[C@H]2O)[C@@H]2C(CO)=CC[C@H]12`, for which the IC50 was above 100 µM.

Consider `COC(=O)C1=CO[C@@H](O[C@@H]2O[C@H](CO[C@H]3OC[C@@H](O)[C@H](O)[C@H]3O)[C@@H](O)[C@H](O)[C@H]2O)[C@@H]2C(CO)=CC[C@H]12`, for which the IC50 is above 100 µM.

In turn, `COC(=O)C1=CO[C@@H](O)[C@@H]2C(CO)=C[C@@H](O)[C@H]12` showed an IC50 of 28.7 µM.

`COC(=O)C1=CO[C@@H](O[C@@H]2O[C@H](CO[C@@H]3O[C@@H](C)[C@H](O)[C@@H](O)[C@H]3O)[C@@H](O)[C@H](O)[C@H]2O)[C@@H]2C(CO)=CC[C@H]12`: the half-inhibitory concentration (IC50) was above 100 µM.

For `COC(=O)C1=CO[C@@H](O[C@@H]2O[C@H](CO)[C@@H](O)[C@H](O)[C@H]2O)[C@@H]2C(CO)=C[C@@H](O)[C@H]12`, the IC50 was above 100 µM.

The molecule `CC(/C=C/C=C(\C)C(=O)O[C@@H]1O[C@H](CO[C@@H]2O[C@H](CO)[C@@H](O)[C@H](O)[C@H]2O)[C@@H](O)[C@H](O)[C@H]1O)=C\C=C\C=C(C)\C=C\C=C(/C)C(=O)O[C@@H]1O[C@H](CO[C@@H]2O[C@H](CO)[C@@H](O)[C@H](O)[C@H]2O)[C@@H](O)[C@H](O)[C@H]1O` [CROCIN] registered an IC50 above 100 µM.

`COC(=O)C1=CO[C@@H](O[C@@H]2O[C@H](CO)[C@@H](O[C@@H]3O[C@H](CO)[C@@H](O)[C@H](O)[C@H]3O)[C@H](O)[C@H]2O)[C@@H]2C(CO)=CC[C@H]12` [GENAMESIDE C] returned an IC50 above 100 µM.

On to `COC(=O)C1=CO[C@@H](O[C@@H]2O[C@H](CO)[C@@H](O)[C@H](O)[C@H]2O)[C@@H]2C(CO[C@@H]3O[C@H](CO)[C@@H](O)[C@H](O)[C@H]3O)=CC[C@H]12` [GENAMESIDE D], for which the IC50 is above 100 µM.

Turning to `COC(=O)C1=CO[C@@H](O[C@@H]2O[C@H](CO[C@@H]3O[C@H](CO)[C@@H](O)[C@H](O)[C@H]3O)[C@@H](O)[C@H](O)[C@H]2O)[C@@H]2C(CO)=CC[C@H]12` [GENIPIN GENTIOBIOSIDE], the IC50 is above 100 µM.

As to `COC(=O)C1=CO[C@@H](O)[C@@H]2C(CO)=CC[C@H]12` [GENIPIN], the IC50 was 11.1 µM.

Molecule `COC(=O)C1=CO[C@@H](O[C@@H]2O[C@H](CO)[C@@H](O)[C@H](O)[C@H]2O)[C@@H]2C(CO)=CC[C@H]12` [GENIPOSIDE] came in with a concentration for half-maximal inhibition (IC50) above 100 µM.

Molecule `CC1=C(C(=O)O[C@@H]2O[C@H](CO[C@@H]3O[C@H](CO)[C@@H](O)[C@H](O)[C@H]3O)[C@@H](O)[C@H](O)[C@H]2O)C(C)(C)CC=C1` [JASMINOSIDE R] had a concentration for half-maximal inhibition (IC50) above 100 µM.

In turn, `CC1=C(C(=O)O[C@@H]2O[C@H](CO[C@@H]3O[C@H](CO)[C@@H](O)[C@H](O)[C@H]3O)[C@@H](O)[C@H](O)[C@H]2O)C(C)(C)CCC1` [JASMINOSIDE S] showed an IC50 above 100 µM.

With `CC1=CC(=O)CC(C)(C)[C@H]1CO[C@@H]1O[C@H](CO[C@@H]2OC[C@](O)(CO)[C@H]2O)[C@@H](O)[C@H](O)[C@H]1O` [JASMINOSIDE T], the IC50 was above 100 µM.

`CC(/C=C/C=C(\C)C(=O)O)=C\C=C\C=C(C)\C=C\C=C(/C)C(=O)O` [TRANSCROCETIN] registered an IC50 of 5.99 µM.
